Measured values taken from ChEMBL document CHEMBL1157539, “Thousands of chemical starting points for antimalarial lead identification” (Nature, 2010).

System: Plasmodium falciparum
Test: GSK_TCMDC: Inhibition of Plasmodium falciparum 3D7 in whole erythrocytes, using parasite LDH activity as an index of growth.
Assay type: functional, organism-based
Conditions: Plasmodium falciparum, 3D7

Structure (SMILES)	XC50
Fc1cccc(Nc2nc(NCc3ccc4ccsc4c3)nc(Nc3cccc(F)c3)n2)c1	1.08 µM
FC(F)(F)c1ccc(NC(=S)N2CCC(CCN3CCC(c4c[nH]c5ccccc45)CC3)CC2)cc1	0.885 µM
O=[N+]([O-])c1ccc(C(O)CNCCc2ccccc2)cc1OCc1ccccc1 (stereo unspecified)	0.912 µM
COc1ccc(Cc2cnc3nc(N)nc(N)c3c2C)cc1	0.0291 µM
Cc1cc2[nH]c(-c3ccc(C(=O)NCCCN4CCN(c5cccc(Cl)c5)CC4)s3)nc2cc1Cl	0.653 µM
Cc1ccc(NC(=O)c2cnc(N3CCN(c4ccncc4)CC3)c(Cl)c2)cc1	0.965 µM
Cc1cccc2nc(-c3ccc(-c4ccc(CNCCNC(=O)c5ccnn5C)cc4)cc3)[nH]c12	0.48 µM
O=C(Nc1cccc(-c2cccc(-c3nc4cc(C(F)(F)F)ccc4[nH]3)c2)c1)Nc1ccc(F)c(F)c1F	0.119 µM
O=C(NC1CCN(CC2(c3ccc(Cl)cc3)CCC2)CC1)c1cc[nH]n1	0.421 µM
CNS(=O)(=O)CCNCc1ccc(-c2ccc3ncnc(Nc4ccc(OCc5ccccc5)cc4)c3c2)o1	0.729 µM
CCCCCCCCc1c(C)nc(C)c(Br)c1O	0.824 µM
NC1CCN(CCNCc2cccc(-c3ccc(-c4nc5cc(F)ccc5[nH]4)cc3)c2)C1 (stereo unspecified)	0.734 µM
O=C(Nc1ccc(-c2nc3ccccc3[nH]2)cc1)c1ccc(S(=O)(=O)N2CCc3ccccc32)cc1	0.741 µM
CC(C)CNCc1ccc(-c2ccc(CN(CCCN3CCN(C)CC3)C(=O)CCC3CCCC3)cc2)cc1	1.06 µM
Cc1cc(OCC(=O)Nc2ccc(-c3nc4ccccc4[nH]3)cc2)cc(C)c1Cl	0.742 µM
c1cc(CNCC2CCN(CC3CCCCC3)CC2)cc(-n2ccnc2)c1	0.545 µM
CC(=O)Nc1ccc(C(=O)Nc2cccc(-c3ccc(-c4nc5cccc(C)c5[nH]4)cc3)c2)cn1	0.191 µM
O=C(Nc1cccc(-c2ccc(-c3nc4ccccc4[nH]3)cc2)c1)Nc1ccc(F)c(F)c1F	0.238 µM
Cn1nccc1C(=O)NCCNCc1ccc(-c2cccc(-c3nc4cc(F)ccc4[nH]3)c2)cc1	0.218 µM
CCOc1ccc(Nc2nc(N)c3ccccc3n2)cc1	1.15 µM
CC(=O)Nc1ccc(CN2CCC(NC(=O)c3cc(-c4ccc(N(C)C)cc4)cs3)C2)cc1 (stereo unspecified)	1.17 µM
Cc1cc(NCC(c2ccccc2)c2ccccc2)nc(NCc2ccc(C(F)(F)F)cc2)n1	0.246 µM
O=C(Nc1cccc(CN2CCCN(Cc3ccc(O)cc3)CC2)c1)c1cccc(F)c1	0.896 µM
O=C(O[C@H]1CN[C@H](C#Cc2cc3ncnc(Nc4ccc5c(ccn5S(=O)(=O)c5cccs5)c4)c3s2)C1)N1CCOCC1	1.1 µM

Structure (SMILES)	XC50
CCc1cn2c3c(cc(C(=O)N[C@@H](Cc4ccccc4)[C@H](O)CNC4CCOCC4)cc13)N(C)S(=O)(=O)C2	0.0877 µM
C=CCNc1cc(-c2ccccn2)nc(-c2ccccn2)n1	0.472 µM
COC(=O)C(C)(C)c1ccc(CC(C)NCC(O)c2cccc(C(F)(F)F)c2)cc1 (stereo unspecified)	0.837 µM
COc1cc(Cc2cnc(N)nc2N)cc(OC(C)C)c1OC	1.04 µM
COc1cc(NC(=O)N2CCc3ccc(OCCN(C(C)C)C(C)C)cc32)cc(C(F)(F)F)c1	0.186 µM
Oc1ccc(CCNc2nc(NCCCOc3cc(CN4CCCCC4)ccc3F)nc(N3CCNCC3)n2)cc1	1.76 µM
Cc1cccc2nc(-c3cccc(-c4ccc(CNCCCN5CCCC5=O)cc4)c3)[nH]c12	0.956 µM
CCN1C(c2ccc(Cl)cc2)C(CNCc2ccccc2O)CC1(C)CO (stereo unspecified)	0.311 µM
CC(=O)c1c[nH]c2ccc(/C=C/C(=O)NC3CCC(CCN4CCc5ccc(C#N)cc5CC4)CC3)cc12 (stereo unspecified)	0.496 µM
Cc1cc(O)c(CN(C)Cc2ccc3c(c2)OCCO3)cc1C(C)C	0.672 µM
Cn1nccc1C(=O)NCCNCc1ccc(-c2cccc(-c3nc4ccccc4[nH]3)c2)cc1	0.137 µM
CC1(C)NC(N)=NC(=N)N1OCCCCCCOc1ccc(Cl)c2ccccc12	0.0032 µM
CCN(CCN(C)C)Cc1ccc(-c2ccc(NS(=O)(=O)c3cccc4cccnc34)cc2)cc1	0.931 µM
CCOc1cc(CC)ccc1C1CCN(CCN2CCC(NC(=O)c3ccc(-c4ccc(C#N)cc4)cc3)CC2)CC1	0.61 µM
CN(C)c1cc(NN=Cc2cc(Cl)ccc2O)nc(N(C)C)n1	0.703 µM
Fc1cccc(COc2ccc(-n3ccc4c(NCCCn5ccnc5)ncnc43)cc2Cl)n1	1.03 µM
O=[N+]([O-])c1cccc(CNCC2CCN(CC3CCCCC3)CC2)c1	1.29 µM
Cc1cc(N[C@@H](Cc2ccccc2)C(=O)NCc2cccc(F)c2)nc(NCCc2cccs2)n1	0.622 µM
CC(Cc1ccc(OCCN2CCN(c3cccc(Cl)c3)CC2)cc1)NCC(O)c1cccc(Cl)c1 (stereo unspecified)	1.21 µM
O=C(Nc1cccc(-c2ccc(-c3nc4cc(C(F)(F)F)ccc4[nH]3)s2)c1)c1cccnc1	0.363 µM
Cc1ccc(S(=O)(=O)N2CCCN(C(=O)c3cc(-c4ccccc4)[nH]n3)CC2)cc1	0.0843 µM
NC1=NC2(CCCCC2)N(OCCCCCCCCNc2nc(N)nc(N)n2)C(N)=N1	0.0598 µM
CCCCCCN1CCC(NCc2ccc(Cl)cc2)CC1	0.854 µM
NC(=O)c1ccccc1OCC(=O)Nc1ccc(-c2cccc(-c3nc4cc(C(F)(F)F)ccc4[nH]3)c2)cc1	0.978 µM

Structure (SMILES)	XC50
CCOC(=O)CCCc1cc(NC2CCN(C)CC2)nc(Nc2ccc(C)cc2)n1	0.263 µM
Cc1cc(N2CCCN(C)CC2)nc(Nc2ccc(Cl)cc2)n1	0.795 µM
CC(C)(C)NS(=O)(=O)c1cc(C(=O)N2CCC(CCN3CCC(C(=O)c4ccc(F)cc4)CC3)(c3cccc(F)c3)CC2)c(Cl)cc1F	0.746 µM
O=C(Nc1nc2ccc(Cl)cc2s1)c1csnn1	0.786 µM
COCCNCc1ncsc1-c1ccc2c(Nc3ccc(Oc4ccccc4)cc3)ccnc2c1	0.905 µM
CCOc1ccc(S(=O)(=O)N(C)c2ccc(OCC(=O)Nc3nccs3)cc2)cc1	0.961 µM
COc1ccc2nccc([C@@H](O)CN3CCC(NC(=O)[C@@H]4Cc5ccccc5CN4C(=O)OC(C)(C)C)CC3)c2c1	0.892 µM
COc1ccc2nccc(NC(=O)OC3CCC(NCc4ccc5c(n4)NC(=O)CS5)CC3)c2c1 (stereo unspecified)	0.924 µM
C=CCc1cc(C)ccc1OCCCON1C(N)=NC(N)=NC1(C)C	0.0032 µM
CC(C)NCc1cccc(-c2cccc(-c3nc4ccccc4[nH]3)c2)c1	0.799 µM
CN1CCN(CCCSc2ccc3c(c2)ncn3-c2cc(OCc3ccccc3C(F)(F)F)c(C(N)=O)s2)CC1	0.439 µM
CCc1cc2c(=O)c(-c3nc(C)cs3)c(N)oc2c(CN2CCCCC2)c1O	0.658 µM
COc1ccc(C=Cc2cc(=N)c3ccccc3[nH]2)cc1	0.969 µM
CCc1ccc(CN2CCC(CN(C(=O)c3ccccc3)c3ccc(Cl)cc3)CC2)cc1	0.991 µM
COc1cc2nc(Nc3ccc4c(cnn4Cc4ccccc4)c3)nc(Nc3ccc4c(cnn4Cc4ccccc4)c3)c2cc1OC	0.194 µM
CN1CCC(Oc2ccc(CN3CC[C@H](NC(=O)c4ccc(Cl)c(F)c4)C3)c3ccccc23)C1 (stereo partly specified)	0.738 µM
COc1ccc(CN2CCC(CNCCc3c(Cl)cccc3Cl)CC2)cc1	0.435 µM
CC(=O)N1N=C(c2ccc(F)cc2)Sc2c1nc(C1CCCCC1)n2C(C)=O	0.891 µM
Cc1noc(C)c1-c1cccc(CNCc2cccc(-c3ccc(-c4nc5ccccc5[nH]4)s3)c2)c1	0.204 µM
O=C(C1COc2ccccc2O1)N(CCCn1ccnc1)Cc1csc(-c2ccc(CNCc3ccccc3)cc2)n1 (stereo unspecified)	0.619 µM
COCCn1c(-c2nc(-c3ccc(F)cc3)cnc2N)nc2ccccc21	0.872 µM
Cc1cc2cc(-c3ccc(CN)cc3)ccc2nc1N	1.13 µM
CCc1cc2c(Sc3nnc(N)s3)ncnc2s1	0.659 µM
